One assay has as its target MDM2 (Homo sapiens, UniProt Q00987). In words: Competitive fluorescence polarization assay for MDM2. In kind it is binding. The note with it: competitive FP assay, MDM2; for IC50: read-out: IC50 (MDM2).
Another assay deals with T1, MDMX (Homo sapiens, UniProt O15151).
T1 sequence (O15151 1-125): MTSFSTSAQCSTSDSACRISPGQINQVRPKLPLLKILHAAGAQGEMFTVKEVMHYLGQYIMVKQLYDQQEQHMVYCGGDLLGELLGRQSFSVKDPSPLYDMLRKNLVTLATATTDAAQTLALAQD
In words: Competitive fluorescence polarization assay for MDMX. The settings on record: competitive FP assay; for IC50: read-out: IC50 (MDMX); for Ki: read-out: Ki (MDMX). In kind it is binding. For orientation: Polarisation of emitted light reports the rotation of a fluorescent probe.

This note sets out measurements from patent publication US8927500B2, “Peptidomimetic macrocycles” (Aileron Therapeutics, Inc., priority 2012, dated 2015).

A word on the IC50: it is the concentration that inhibits the measured activity by half. What is called Ki is the equilibrium dissociation constant of an inhibitor or competing ligand from its target.

The structures appear in SMILES notation. Like-named read-outs stand apart in the source and are kept apart here. Where a SMILES comes first, the peptide text is derived from it. Bridges are numbered along the chain shown (N, C = ends). [ ]: non-standard residue; d: D form. R8 = C=CCCCCCC[C@@](C)(N)C(=O)O; Cba = N[C@@H](CC1CCC1)C(=O)O; S5 = C=CCCC[C@](C)(N)C(=O)O A value given as a limit tells only on which side of the number the result lay.

Chain of MDM2 (Q00987 1-125): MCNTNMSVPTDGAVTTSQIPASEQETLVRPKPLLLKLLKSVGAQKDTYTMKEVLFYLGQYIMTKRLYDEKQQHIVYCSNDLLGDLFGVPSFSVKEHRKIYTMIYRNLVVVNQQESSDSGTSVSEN

Turning to `CCCC[C@H](NC(=O)CN(C)C(=O)[C@H](C)NC(=O)[C@]1(C)CCCC=CCCCCCC[C@@](C)(NC(=O)[C@H](Cc2ccccc2)NC(=O)[C@@H](NC(=O)[C@H](CC(C)C)NC(C)=O)[C@@H](C)O)C(=O)N[C@@H](C)C(=O)N[C@@H](Cc2ccc(O)cc2)C(=O)N[C@@H](Cc2c[nH]c3ccccc23)C(=O)N[C@@H](C)C(=O)N[C@@H](CCC(N)=O)C(=O)N[C@@H](CC(C)C)C(=O)N1)C(=O)N[C@@H](C)C(N)=O` (single isomer, unassigned) [compound 396], the IC50 on MDM2 was below 10 nM. Further, the inhibition constant (Ki) on MDM2 (read-out: Ki (MDM2)) was below 10 nM.

Consider `CC(C)C[C@H](NC(=O)CN(C)C)C(=O)N[C@H](C(=O)N[C@@H](Cc1ccccc1)C(=O)N[C@]1(C)CCCCCCC=CCCC[C@@](C)(C(=O)N[C@@H](CO)C(=O)N[C@@H](C)C(=O)N[C@@H](C)C(N)=O)NC(=O)[C@H](CC2CCC2)NC(=O)[C@H](CCC(N)=O)NC(=O)[C@H](C)NC(=O)[C@H](Cc2c[nH]c3ccccc23)NC(=O)[C@H](Cc2ccc(O)cc2)NC(=O)[C@H](CCC(=O)O)NC1=O)[C@@H](C)O` [compound 435], for which, at MDMX, the half-inhibitory concentration (IC50) fell in the range of 10 to 100 nM and the inhibition constant Ki was below 10 nM.

On to `CC(=O)N[C@@H](CC(C)C)C(=O)N[C@H](C(=O)N[C@@H](Cc1ccccc1)C(=O)N[C@]1(C)CCCCCCC=CCCC[C@@](C)(C(=O)N[C@@H](C)C(=O)N[C@@H](C)C(=O)NC(C)(C)C(=O)N[C@H](C(N)=O)C(C)C)NC(=O)[C@H](CC(C)C)NC(=O)[C@H](CCC(N)=O)NC(=O)[C@H](C)NC(=O)[C@H](Cc2c[nH]c3ccccc23)NC(=O)[C@H](Cc2ccc(O)cc2)NC(=O)[C@H](C)NC1=O)[C@@H](C)O` (single isomer, unassigned) [compound 24], for which the IC50 on MDM2 was in the range of 10 to 100 nM. Further, the Ki at MDM2 (read-out: Ki (MDM2)) was below 10 nM.

With `CCCCCCCCCC(=O)N[C@@H](CC(C)C)C(=O)N[C@H](C(=O)N[C@@H](Cc1ccccc1)C(=O)N[C@]1(C)CCCCCCC=CCCC[C@@](C)(C(=O)N[C@@H](CO)C(=O)N[C@@H](C)C(=O)N[C@@H](C)C(N)=O)NC(=O)[C@H](CCC(C)C)NC(=O)[C@H](CCC(N)=O)NC(=O)[C@H](C)NC(=O)[C@H](Cc2c[nH]c3ccccc23)NC(=O)[C@H](Cc2ccc(O)cc2)NC(=O)[C@H](CCC(=O)O)NC1=O)[C@@H](C)O` [compound 282], at MDMX, the IC50 is above 1000 nM and the inhibition constant Ki was above 1000 nM.

For `CC(=O)N[C@@H](CC(C)C)C(=O)N[C@H](C(=O)N[C@@H](Cc1ccccc1)C(=O)N[C@]1(C)CCCCCCC=CCCC[C@@](C)(C(=O)N[C@@H](CO)C(=O)N[C@@H](C)C(=O)N[C@@H](C)C(N)=O)NC(=O)[C@H](CC2CCC2)NC(=O)[C@H](CCC(N)=O)NC(=O)[C@H](C)NC(=O)[C@H](Cc2c[nH]c3cc(Cl)ccc23)NC(=O)[C@H](Cc2ccc(O)cc2)NC(=O)[C@H](CCC(=O)O)NC1=O)[C@@H](C)O` [compound 332], at MDMX, the IC50 is 10 to 100 nM and the Ki was below 10 nM.

With `CC(=O)N[C@@H](CC(C)C)C(=O)N[C@H](C(=O)N[C@@H](Cc1ccccc1)C(=O)N[C@]1(C)CCCCCCC=CCCC[C@@](C)(C(=O)N[C@@H](CO)C(N)=O)NC(=O)[C@H](CC2CCC2)NC(=O)[C@H](CCC(N)=O)NC(=O)[C@H](C)NC(=O)[C@H](Cc2c[nH]c3ccccc23)NC(=O)[C@H](Cc2ccc(O)cc2)NC(=O)[C@H](CCC(=O)O)NC1=O)[C@@H](C)O` [compound 595] (Ac-LTF[R8]EYWAQ[Cba][S5]S-NH2; staple 4-11), the Ki at MDM2 (read-out: Ki (MDM2)) is above 1000 nM.

Take `CC(=O)N[C@@H](CC(C)C)C(=O)N[C@H](C(=O)N[C@@H](Cc1ccccc1)C(=O)N[C@]1(C)CCCCCCC=CCCC[C@@](C)(C(=O)N[C@H](C)C(N)=O)NC(=O)[C@H](CC(C)C)NC(=O)[C@H](CCC(N)=O)NC(=O)[C@H](C)NC(=O)[C@H](Cc2c[nH]c3ccccc23)NC(=O)[C@H](Cc2ccc(O)cc2)NC(=O)[C@H](CCC(=O)O)NC1=O)[C@@H](C)O` [compound 589] (Ac-LTF[R8]EYWAQL[S5][dA]-NH2; staple 4-11): at MDM2 (Ki (MDM2)), the Ki was below 10 nM.

With `CC(=O)N[C@@H](CC(C)C)C(=O)N[C@H](C(=O)N[C@@H](Cc1ccccc1)C(=O)N[C@]1(C)CCCCCCC=CCCC[C@@](C)(C(=O)N[C@@H](C)C(=O)N[C@@H](C)C(=O)NC(C)(C)C(=O)N[C@H](C(N)=O)C(C)C)NC(=O)[C@H](CC(C)C)NC(=O)[C@H](CCC(N)=O)NC(=O)[C@H](C)NC(=O)[C@H](Cc2c[nH]c3ccccc23)NC(=O)[C@H](Cc2ccc(O)cc2)NC(=O)[C@H](C)NC1=O)[C@@H](C)O` (single isomer, unassigned) [compound 23], on MDM2, the IC50 is 100 to 1000 nM. Also, the Ki on MDM2 (read-out: Ki (MDM2)) lay in the range of 10 to 100 nM.

On to `CC(=O)N[C@@H](CC(C)C)C(=O)N[C@H](C(=O)N[C@@H](Cc1ccccc1)C(=O)N[C@]1(C)CCCCCCC=CCCC[C@@](C)(C(=O)N[C@@H](C)C(=O)N[C@@H](C)C(=O)N[C@@H](C)C(=O)N[C@@H](C)C(=O)N[C@H](C)C(N)=O)NC(=O)[C@H](CCC(C)C)NC(=O)[C@H](CCC(N)=O)NC(=O)[C@H](C)NC(=O)[C@H](Cc2c[nH]c3ccccc23)NC(=O)[C@H](Cc2ccc(O)cc2)NC(=O)[C@H](C)NC1=O)[C@@H](C)O` (single isomer, unassigned) [compound 314], for which, on MDMX, the concentration for half-maximal inhibition (IC50) lay within 10 to 100 nM and the Ki is below 10 nM.

Consider `CC(C)C[C@H](NC(=O)c1ccc(F)cc1)C(=O)N[C@H](C(=O)N[C@@H](Cc1ccccc1)C(=O)N[C@]1(C)CCCCCCC=CCCC[C@@](C)(C(=O)N[C@@H](CO)C(=O)N[C@@H](C)C(=O)N[C@@H](C)C(N)=O)NC(=O)[C@H](CC2CCC2)NC(=O)[C@H](CCC(N)=O)NC(=O)[C@H](C)NC(=O)[C@H](Cc2c[nH]c3ccccc23)NC(=O)[C@H](Cc2ccc(O)cc2)NC(=O)[C@H](CCC(=O)O)NC1=O)[C@@H](C)O` [compound 597], for which the inhibition constant Ki on MDMX was in the range of 10 to 100 nM.

For the compound `CC(C)C[C@H](NC(=O)CCNC(=O)c1ccc2c(c1)C(=O)OC21c2ccc(N(C)C)cc2Oc2cc(N(C)C)ccc21)C(=O)N[C@H](C(=O)N[C@@H](Cc1ccccc1)C(=O)N[C@]1(C)CCCCCCC=CCCC[C@@](C)(C(=O)N[C@@H](CO)C(=O)N[C@@H](C)C(=O)N[C@@H](C)C(N)=O)NC(=O)[C@H](CC2CCC2)NC(=O)[C@H](CCC(N)=O)NC(=O)[C@H](C)NC(=O)[C@H](Cc2c[nH]c3ccccc23)NC(=O)[C@H](Cc2ccc(O)cc2)NC(=O)[C@H](CCC(=O)O)NC1=O)[C@@H](C)O` [compound 686], the Ki at MDMX fell in the range of 10 to 100 nM.

Take `CC(=O)N[C@@H](CC(C)C)C(=O)N[C@H](C(=O)N[C@@H](Cc1ccc(F)c(F)c1)C(=O)N[C@]1(C)CCCCCCC=CCCC[C@@](C)(C(=O)N[C@@H](CO)C(=O)N[C@@H](C)C(=O)N[C@@H](C)C(N)=O)NC(=O)[C@H](CC2CCC2)NC(=O)[C@H](CCC(N)=O)NC(=O)[C@H](C)NC(=O)[C@H](Cc2c[nH]c3ccccc23)NC(=O)[C@H](Cc2ccc(O)cc2)NC(=O)[C@H](CCC(=O)O)NC1=O)[C@@H](C)O` (single isomer, unassigned) [compound 289]: at MDMX, the IC50 was 10 to 100 nM and the inhibition constant (Ki) was 10 to 100 nM.

Take `CC(=O)N[C@@H](CC(C)C)C(=O)N[C@H](C(=O)N[C@@H](Cc1ccccc1)C(=O)N[C@]1(C)CCCCCCC=CCCC[C@@](C)(C(=O)N[C@@H](C)C(=O)N[C@@H](C)C(=O)N[C@@H](C)C(=O)N[C@@H](C)C(=O)N[C@H](C)C(N)=O)NC(=O)[C@H](CCC(C)C)NC(=O)[C@H](CCC(N)=O)NC(=O)[C@H](C)NC(=O)[C@H](Cc2c[nH]c3ccccc23)NC(=O)[C@H](Cc2ccc(O)cc2)NC(=O)[C@H](C)NC1=O)[C@@H](C)O` (single isomer, unassigned) [compound 313]: on MDMX, the IC50 is 100 to 1000 nM and the Ki fell in the range of 10 to 100 nM.
